Read-outs that look alike come from different tables or passages of the source.
How the values were obtained:
[1] = test system: patient with right foot rest pain and disabling claudication; settings: Case 2; for walking distance without pain: three liters of fluid a day
Excerpt: A patient came to the consult with right foot rest pain, pallor and coldness up to the knee. […] Rest pain started one week before the consult and their claudication became disabling one month before. The patient was drinking less than 700 milliliters a day of fluids. […] Before proceeding to amputation, proper hydration was achieved. […] Three liters of fluid a day was recommended and the patient was discharged.

[2] = test system: patients with disabling intermittent claudication or rest pain of the lower extremities
Excerpt: (§1) Dehydration often occurs in elderly population. Incidence of peripheral artery disease in patients over 60 years of age ranges between 18 and 29%. It was hypothesized that dehydration aggravates symptoms of PAD. Patients with disabling claudication or rest pain resistant to standard medical therapy were instructed to drink between 2,500 to 3000 milliliters of water according to their body mass.
(§2) Patients without a past history of Congestive Heart Failure or renal insufficiency were included in the following example without interrupting exercises they were performing or medication they were receiving. Ninety percent of the patients were receiving aspirin and 100% of them Statins and Cilostazol at least for 5 months before starting the protocol. (See Table 2 below.)
(§3) All patients belonged to category IIb of Fontaine and grade 1 category 2 and 3 of Rutherford.
(§4) Protocol: Complete physical examination and laboratory work were performed. Ankle-brachial pressures were recorded. • 1) Graphics of skin temperature were obtained in both feet using a Flir Thermal Camera (Flir Systems Inc.) in a room at 24 degrees Celsius. (See FIGS. 3 and 4) • 2) Time and distance to claudication using a treadmill at 3 miles per hour was recorded. • 3) Subjective classification of pain intensity from […] was documented. (0=no pain, 10=intense pain) • 4) Skin color-including the absence and/or reduction in abnormal variations in skin color, skin tone and skin elasticity.
(§5) Duplex of the abdominal artery, iliac arteries and infra-inguinal vessels was performed in every patient. Patients were followed weekly and underwent regular blood tests. Patients were recommended to drink 3,000 milliliters of water a day; fluids like tea and milk were counted in addition to water. This recommendation was the part of the protocol and it was carefully controlled.
Statistical analysis: software utilized: SPSS 20 Qualitative variables were expressed in percentages. Quantitative variables were analyzed with the test of Shapiro-Wilk. Continuous variables were expressed as median, 95% confidence intervals and interquartile intervals. Wilcoxon Signed Rank Test was also utilized P<0.05 was considered significant.

[3] = test system: patients with disabling intermittent claudication or rest pain of the lower extremities; remark: listed apart in the source
Excerpt: as §1, §2, §3, §4, §5

[4] = test system: patient with intermittent claudication of the lower extremities and abdominal angina; settings: Case 1
Experimental: A person complaining of 10 step intermittent claudication of the lower extremities, abdominal angina that produced a 15 Kg weight loss, and an abnormal renal function with a creatinine of 3.1 mg per deciliter.
The patient was having intermittent claudication for years but in the last four months it became disabling.
On physical exam patient had no palpable pulses.
The patient was admitted, stool cultures performed and patient was rehydrated with precaution considering their heart condition. […] After four days the patient was discharged and asked to drink 2.5 liters of fluids a day.

## O [water]
[1]; after seven months
  walking distance without pain: walked four kilometers without pain
[1]; after three months
  walking distance without pain: walked three blocks without pain
[1]; two days after proper hydration was achieved
  rest pain of the right foot: pain subsided
[2]; 0=no pain, 10=intense pain, CI 1 to 2.341, initial median 6 (6 to 8), p<0,0001
  pain intensity (final) Median: 2
[2]; FIG. 5, median, 95% confidence interval 29.300 to 31.468, initial median 29.95 (28 to 31)
  final Median dorsal temperature of the first right toe after treatment: 30.65
[2]; FIG. 6, median, CI 28.464 to 30.302, initial median 28.50 (27.366 to 29.939), p:0.0347
  final Median plantar temperature of the first right toe after treatment: 29.25
[2]; after 6 weeks of hydration, before 28.40 (26.82-30), p: 0.030
  Median temperature of the plantar aspect of the left foot after hydration: 29.20 (26.70-30.92) ° C.
[2]; after 6 weeks of hydration, before 28.70 (27-31), p: 0.011
  Median temperature of the plantar aspect of the right foot after 6 weeks: 29 (27.70-31) ° C.
[2]; after 6 weeks of hydration, before 29.40 (27.72-31.30), p: 0.009
  Median temperature of the dorsum of the left foot after 6 weeks: 30.20 (27.70-31.70) ° C.
[2]; after 6 weeks of hydration, before protocol 29.95 (27.60-31.15), p: 0.02
  Median temperature of the dorsum of the right foot after hydration: 30.35 (28.12-31.60) ° C.
[2]; after treatment
  Decrease of pain sensation recorded, percentage of patients: 91.7 % of patients
  Patients with improvement of pain sensation of more than 50%: 80 % of the patients
[2]; initial median 0.6 (0.50 to 0.69), p<0,0001
  Median ankle/brachial index after 6 weeks of treatment: 0.75 (0.62 to 0.80)
[2]; single patient 15, final intake of water 3000 ml, initial 6
  Final pain intensity sensation, patient 15: 0
[2]; single patient 15, final intake of water 3000 ml, initial 300 mts
  Distance to claudication (final), patient 15: 6000 mts
[2]; single patient 15, final intake of water 3000 ml, initial index 0.77
  Final ankle/brachial index, patient 15: 0.83
[2]; treadmill 3 miles per hour, end of 6 weeks, CI 382.947 to 800, initial median 100 (50 to 200), p<0.0001
  distance to claudication, final Median: 535
[2]; treadmill, 95% CI 4.195 to 9.209, initial median 1.3 (0.7 to 2.500), p<0.0001
  Time to claudication after hydration, Median: 6.3 min
[3]; 35 patients in whom proper hydration was achieved
  status related to lower extremity ischemia: all of them improved
[3]; anecdotal, drinking 3 liters of water a day
  ulcers in the toes and ankle: reversed the lesions
[3]; patients who drank more than 2.5 liters of fluids a day (35 of the 36 patients)
  Time and distance to claudication, cutaneous temperature, ankle-brachial pressure and subjective pain sensation: improved significantly
[4]; 14 months after last admission, 2.5 liters of fluids a day
  walking distance without pain: more than 4 blocks
[4]; after rehydration in hospital, second day
  walking distance without pain: 50 meters

— patent US20250186485A1, “HYDRATION COMPOSITIONS” (priority 2017, published 2025)
